{"source": "patent US8524661B2", "about": "“Inhibiting serum response factor (SRF) to improve glycemic control” (Joslin Diabetes Center, Inc., priority 2008, dated 2013)", "key": {"STARS": {"tested_on": "STARS", "assay": "STARS expression in C2C12 myotubes after actin disruption", "format": "cell-based", "conditions": "p<0.03, not shown", "description": "Additional pathway analysis using MAPPFinder confirmed that serum response factor (SRF)-dependent and actin-related cytoskeleton gene expression is increased in diabetes, and more importantly, also in insulin resistance. The top-ranking single gene differentially expressed in skeletal muscle in the fasting state is the Actin-binding Rho activating protein (ABRA), or STARS, increased by 2.5 fold in individuals with type 2 diabetes (p<0.01). This gene regulates intracellular actin dynamics and subcellular localization of MKL1/2, thus contributing to SRF-dependent gene transcription. Since disruption of actin by latrunculin B increases STARS expression in C2C12 cells by 50% in C2C12 myotubes (p<0.03, not shown), it was hypothesize that increased STARS expression in DM may reflect disruption of actin dynamics and also contribute to the pattern of increased SRF-related gene expression. Similar patterns of SRF-dependent expression are also observed in adipose tissue from insulin resistant subjects and in insulin resistant muscle."}, "[1]": {"tested_on": "MKL1-dependent and -independent SRF pathways", "assay": "Gene set enrichment of SRF pathways in C2C12 myotubes", "format": "cell-based", "conditions": "compared with control BSA treated cells"}, "[2]": {"tested_on": "SRF transcriptional activity", "assay": "SRF transcriptional activity, 4x CArG (SRE) promoter luciferase reporter in C2C12 cells", "format": "cell-based", "from_the_text": "To determine whether SRF transcriptional activity is also changed in insulin resistance, 4× tandem repeat of SRF binding element (SRE) CArG boxes (Kuwahara et al., Mol. Cell Biol. 25:3173-3181 (2005)) promoters linked to a luciferase gene were used as a reporter."}, "SRF": {"tested_on": "SRF", "assay": "Low density DNA binding arrays, SRF DNA binding activity", "format": "cell-based", "conditions": "C2C12 myotubes", "protocol": "To explore the above possibility, DNA binding activity of SRF and it co-factor ELK1 to the target gene promoter was first evaluated. To this end, electrophoretic mobility shift assays (EMSA) were performed. […] In support to this idea, in low density DNA binding arrays, SRF DNA binding activity was dramatically (5-10 fold, respectively) increased in primary myotubes from insulin resistant human and free fatty acid (FFA)-treated C2C12 myotubes compared to control."}, "C2C12 myotubes": {"tested_on": "C2C12 myotubes", "assay": "Deoxyglucose uptake in cultured (C2C12) myotubes", "format": "cell-based", "conditions": "FIG. 11E", "description": "(§1) siRNA was used to specifically reduce MKL1 expression, achieving an effective knockdown of about 60%. This increased insulin-stimulated phosphorylation of Akt (Ser473), expressed relative to total Akt protein content, by 2-fold (p<0.01). […] Thus, siRNA-mediated reduction in MKL1 expression enhances both basal and insulin-stimulated glucose uptake in cultured myotubes.\n(§2) Since CCG-1423 increased insulin signalling in myotubes, we hypothesized that CCG-1423 might also enhance glucose uptake. In DMSO (vehicle)-treated myotubes, insulin stimulated a 2-fold increase in deoxyglucose uptake in a dose-dependent manner, consistent with prior reports and the low insulin responsiveness in cultured myotubes (FIG. 11E). […] In parallel, expression of the dominant glucose transporters GLUT4 and GLUT1 was increased by CCG-1423 treatment by 4.1 and 2.5 fold, respectively (p<0.004)."}, "[3]": {"tested_on": "mice with diet-induced obesity", "assay": "CCG-1423 treatment of mice with diet-induced obesity (HFD)", "format": "in vivo", "protocol": "To examine the therapeutic potential of this SRF inhibitor in vivo, we assessed responses to CCG-1423 treatment in mice with diet-induced obesity. […] The HFD mice were administered CCG-1423 (0.15 mg/kg body weight intraperitoneally) for two weeks.\nIn parallel, the high insulin levels associated with insulin resistance were normalized by CCG-1423 treatment (FIG. 13C)."}, "p42/44 ERK": {"tested_on": "p42/44 ERK", "assay": "ERK phosphorylation in C2C12 myotubes (phosphoimmunoblot)", "format": "cell-based", "conditions": "overnight 1 μM CCG-1423, FIG. 11C", "protocol": "(§3) In parallel, CCG-1423 enhanced insulin action in C2C12 myotubes. Overnight treatment with 1 μM CCG-1423 increased insulin-stimulated Akt phosphorylation, both in the presence and absence of dexamethasone (41% for both, p=0.01 and p=0.007, respectively), while having no effect on p42/44 ERK phosphorylation (FIG. 11C)."}, "GLUT1": {"tested_on": "GLUT1", "assay": "GLUT1 expression in myotubes", "format": "cell-based", "conditions": "CCG-1423 treatment, p<0.004", "description": "as §2"}, "GLUT4": {"tested_on": "GLUT4", "assay": "GLUT4 expression in myotubes", "format": "cell-based", "conditions": "CCG-1423 treatment, p<0.004", "description": "as §2"}, "MKL1": {"tested_on": "MKL1", "assay": "MKL1 cellular localization in C2C12 myoblasts", "format": "cell-based"}, "Akt": {"tested_on": "Akt", "assay": "Akt phosphorylation in myotubes (phosphoimmunoblot)", "format": "cell-based", "conditions": "for increase of insulin-stimulated Akt phosphorylation: C2C12 myotubes", "protocol": "as §1\nThe next experiments were performed to determine whether SRF transcriptional activity, rather than expression of SRF itself, is important for maintaining appropriate insulin sensitivity. A new compound, CCG-1423, is available for specifically inhibiting SRF transcriptional activity (Evelyn et al., Mol. Cancer. Ther. 6:2249-2260 (2007)). […] CCG-1423 was then evaluated to test the possibility that reducing SRF transcriptional activity improves insulin sensitivity. Indeed, this is the case. A dramatic improvement in insulin sensitivity resulted from treatment with CCG-1423 in dexamethasone-induced insulin resistant myotubes, as CCG-1423 increased insulin-simulated Akt phosphorylation (a marker of insulin sensitivity) (FIG. 11A).\nas §3"}, "human myotubes": {"tested_on": "human myotubes", "assay": "Basal glucose uptake in human myotubes from control and diabetic subjects", "format": "cell-based", "protocol": "The effects of CCG-1423 on human myotubes, and whether these effects would differ in myotubes derived from controls (n=2) vs. diabetic subjects (n=6), were also evaluated. […] The differential responsiveness in subjects with DM supports the concept that SRF pathways are more robustly activated in humans with insulin resistance and DM, and therefore potentially more sensitive to SRF inhibition."}, "L6 myotubes": {"tested_on": "L6 myotubes", "assay": "2-deoxyglucose uptake in L6 myotubes", "format": "cell-based", "conditions": "CCG-1423 1 uM, 16 hours, FIG. 11E", "protocol": "FIG. 11E is a line graph showing that both basal and insulin-stimulated 2-deoxyglucose uptake are increased by >4-fold in L6 myotubes following CCG-1423, with enhanced insulin sensitivity (1 uM, 16 hours). * indicates p<0.05, **p<0.01, ***p<0.001."}, "[4]": {"tested_on": "SRF target gene expression", "assay": "SRF target gene expression in CCG-1423 treated cells", "format": "cell-based", "conditions": "basal or insulin stimulated state", "description": "(§4) The molecular mechanism of the ability of CCG-1423 to reverse insulin resistance was further explored. The insulin—insulin receptor (1R)—insulin receptor substrate (IRS-1) pathway is the dominant up-stream signalling activator of Akt."}, "IRS-1": {"tested_on": "IRS-1", "assay": "IR / IRS-1 tyrosine phosphorylation and p85 PI 3-kinase association in myotubes", "format": "cell-based", "description": "FIG. 11D is a phosphoimmunoblot showing that CCG-1423 increases basal and insulin-stimulated tyrosine phosphorylation of IRS-1 and its association with p85-PI 3-kinase, in both control and DEX-treated myotubes. * indicates p<0.05, **p<0.01, ***p<0.001.\nas §4, §3"}}, "note": "“Also recorded” adds a separate entry of the source."}
{"smiles": "C/C1=C/C(=O)O[C@@H]2C[C@@H](CC[C@H](C)/C=C\\CC1)O[C@@](O)([C@@H]1CSC(=O)N1)C2", "note": "[latrunculin B]", "values": [{"measurement": "increase of STARS expression", "setting": "STARS", "result": 50, "unit": "%"}]}
{"smiles": "CCCCCCCCCCCCCCCC(=O)O", "note": "[FFA]", "values": [{"measurement": "enrichment of MKL1-dependent and -independent SRF pathways", "setting": "[1]", "result": "significant enrichment"}, {"measurement": "SRF transcriptional activity at basal level", "setting": "[2]; C2C12 myotubes, experimentally induced insulin resistance, FIG. 4", "result": "dramatically increased"}, {"measurement": "increase of SRF DNA binding activity compared to control", "setting": "SRF", "result": "5-10 fold"}]}
{"smiles": "CC(ONC(=O)c1cc(C(F)(F)F)cc(C(F)(F)F)c1)C(=O)Nc1ccc(Cl)cc1", "note": "(stereo not shown) [CCG-1423]", "values": [{"measurement": "insulin-stimulated deoxyglucose uptake response", "setting": "C2C12 myotubes; myotubes incubated with CCG-1423, 1 uM insulin", "result": 11.5, "unit": "fold"}, {"measurement": "glucose uptake increase in the basal state", "setting": "C2C12 myotubes; myotubes incubated with CCG-1423", "result": 4, "unit": "fold"}, {"measurement": "serum insulin levels during glucose tolerance test", "setting": "[3]; 15 minutes after glucose injection, HFD+CCG vs vehicle-treated HFD, FIG. 13C", "result": "normalized; also recorded: significantly reduced"}, {"measurement": "expression of SRF or ELK1", "setting": "[3]; HFD mice, 0.15 mg/kg intraperitoneally, two weeks", "result": "did not alter"}, {"measurement": "expression of SRF targets in skeletal muscle, e.g., ZYX and PDLIM7", "setting": "[3]; HFD mice, 0.15 mg/kg intraperitoneally, two weeks, vs vehicle-injected controls", "result": "significantly decreased"}, {"measurement": "food intake", "setting": "[3]; HFD mice, 0.15 mg/kg intraperitoneally, two weeks, vs vehicle-treated HFD mice", "result": "No significant change"}, {"measurement": "body weight", "setting": "[3]; HFD mice, 0.15 mg/kg intraperitoneally, two weeks, vs vehicle-treated HFD mice, FIG. 12, 0.15 mg/kg", "result": "No significant change; also recorded: not altered"}, {"measurement": "glucose tolerance test area under the curve (AUC)", "setting": "[3]; HFD+CCG vs vehicle-treated HFD animals, FIG. 13B, p<0.006", "result": "significantly reduced"}, {"measurement": "adiponectin levels", "setting": "[3]; HFD-fed mice", "result": "No differences"}, {"measurement": "circulating fatty acid levels", "setting": "[3]; HFD-fed mice", "result": "No differences"}, {"measurement": "insulin tolerance testing", "setting": "[3]; HFD-fed mice", "result": "No differences"}, {"measurement": "in vivo glucose tolerance (intra peritoneal glucose tolerance test)", "setting": "[3]; HFD-fed mice vs HFD-fed vehicle-treated controls, FIG. 13A", "result": "significantly improved; also recorded: improves"}, {"measurement": "p42/44 ERK phosphorylation", "setting": "p42/44 ERK", "result": "no effect; also recorded: minimal change"}, {"measurement": "GLUT1 expression increase", "setting": "GLUT1", "result": 2.5, "unit": "fold"}, {"measurement": "GLUT4 expression increase", "setting": "GLUT4", "result": 4.1, "unit": "fold"}, {"measurement": "MKL1 localization", "setting": "MKL1; compound alone", "result": "almost exclusively localized to the cytoplasm"}, {"measurement": "MKL1 localization, effect on dexamethasone-induced nuclear localization", "setting": "MKL1; with dexamethasone", "result": "reversed dexamethasone-induced MKL1 nuclear localization to partial cytoplasmic localization"}, {"measurement": "increase of insulin-stimulated Akt phosphorylation", "setting": "Akt; overnight 1 μM CCG-1423, absence of dexamethasone, p=0.007", "result": 41, "unit": "%"}, {"measurement": "increase of insulin-stimulated Akt phosphorylation", "setting": "Akt; overnight 1 μM CCG-1423, presence of dexamethasone, p=0.01", "result": 41, "unit": "%"}, {"measurement": "insulin-stimulated Akt phosphorylation (marker of insulin sensitivity)", "setting": "Akt; dexamethasone-induced insulin resistant myotubes, FIG. 11A", "result": "increased; also recorded: improves"}, {"measurement": "insulin-stimulated Akt phosphorylation", "setting": "Akt; insulin 100 nM, 10 minutes, FIG. 11C", "result": "increases"}, {"measurement": "basal increase in glucose uptake (mean)", "setting": "human myotubes; myotubes from control subjects (n=2)", "result": 1.2, "unit": "fold"}, {"measurement": "basal increase in glucose uptake (mean)", "setting": "human myotubes; myotubes from diabetic subjects (n=6)", "result": 3.2, "unit": "fold"}, {"measurement": "SRF-mediated transcriptional activity (4x CArG / SRE promoter activity)", "setting": "[2]; C2C12 myoblasts, serum (FBS 2 hours) or dexamethasone stimulation, CCG-1423 1 uM, 16 hours pre-treatment, FIG. 11B", "result": "efficiently blocked"}, {"measurement": "SRF transcriptional activity induced by serum, dexamethasone, and insulin", "setting": "[2]; C2C12 myotubes, FIG. 10", "result": "specifically block; also recorded: inhibits"}, {"measurement": "basal and insulin-stimulated 2-deoxyglucose uptake increase", "setting": "L6 myotubes", "result": "> 4", "unit": "fold"}, {"measurement": "SRF target gene expression", "setting": "[4]", "result": "does not induces"}, {"measurement": "p85 expression", "setting": "IRS-1; C2C12 myotubes", "result": "without altering"}, {"measurement": "basal and insulin-stimulated tyrosine phosphorylation of IRS-1 and its association with p85 PI 3-kinase", "setting": "IRS-1; control and DEX-treated myotubes, FIG. 11D", "result": "increases"}, {"measurement": "phosphorylation of IR and IRS-1 protein", "setting": "IRS-1; with insulin stimulation", "result": "massive phosphorylation"}]}
